Results reported in PMC12648443, “Modifications of NU-9, a potent protein aggregation inhibitor. Properties and activity in a cellular model of amyotrophic lateral sclerosis” (Bioorganic chemistry, 2025).
Values belong to the molecule of their own block, whether it stands above or below them.

Tests used:
[1] = test system: cells containing SOD1 mutations associated with ALS; parameters: method as in PMID 21073276, PMID 22189273, PMID 22837812; conditions: Fig. 1, evolution of CHD series; cited from earlier work
cortical neurons = test system: cortical neurons; parameters: method as in PMID 22189273; conditions: cited from earlier work
[2] = test system: MG132-induced mutant SOD1 intracellular aggregation in PC12-SOD1^G85R YFP cells; test: Protection against MG132-induced mut-SOD1 intracellular aggregation (fluorescence microscopy); type: cell-based; conditions: for EC50 / EC50 against MG132-induced mutant SOD1 intracellular aggregation: PC12-SOD1^G85R YFP cells, 0.7 μM MG132, 72 h, Inactive = no decrease of aggregates at 10 μM vs vehicle; for loss of potency relative to NU-9: anti-aggregation EC50 compared with NU-9
Experimental: The PC12 Tet-Off-SOD1^G85R YFP cells were cultured in DMEM media supplemented with 10 % horse serum, 5 % Tet-approved FBS, 1 % Penstrep, 1× L-glutamine, 200 μg/mL hygromycin, 100 μg/mL G418, with 1 μg/mL Doxycycline and were incubated at 37 °C in humidified air with […] until 90–95 % confluency. To induce the expression of SOD1^G85R YFP, the Doxycycline was removed at least 4 days before the experiment. To remove the Doxycycline, the media was removed, and the cells were washed 3 times with 1xPBS. The cells were then cultured in standard culture media without Doxycycline. To set up the assay, the cells were then seeded into 96-well cell culture plates (Greiner Bio-One Catalog #655090) at a concentration of 50,000 cells/well with a final volume of 100 μL/well and incubated in the CO2 incubator at 37 °C for 24 h. The media were removed from the cells and replaced with 100 μL of media containing 0.1 % DMSO or compounds, and incubated in the CO2 incubator at 37 °C for 6 h. The media were then replaced with fresh 100 μL of media containing the diluted compounds with 0.7 μM (−)-MG-132, and the plates were incubated for 72 h under culture conditions. After 72 h, the cells were stained with Hoescht 33,342 (55 μg/mL, 10 μL/well) and imaged (lex = 358, 513 nm) using a Molecular Devices ImageXpress Micro Confocal High-Content Imaging System equipped with a 40× objective. […] Image binning was set to 2. DAPI fluorescence was captured using an exposure time of 300 ms, and FITC fluorescence was captured using an exposure time of 400 ms. A 13-plane z-series was acquired for each field of view with a step size of 3 μm. For each condition, 2 sets of 9 images were generated in a 3 × 3 grid to separately image the SOD1^G85R YFP proteins and the nuclei stained with Hoescht 33,342. Image analysis was performed with MetaXpress software (Molecular Devices) using the Transfluor module. Parameters for puncta detection (aggregates) were set with a minimum pit width of 2 μm and a maximum pit width of 5 μm. Signal intensity thresholds were defined as 700 grayscale units above the local background. The analysis provided the average area of each cell that is covered by puncta (pit/cell), which are indicated by bright green spots on the SOD1^G85RYFP image set.
The assay was performed in triplicate for each condition tested, and wells containing the media with vehicle (0.1 % DMSO) or (−)-MG-132 alone were used as controls representing the minimum and maximum aggregate formation. […] The data for EC50 determination was treated with Prism and fitted using a semi-logarithmic curve for determination of the EC50 values of NU9 and compounds 4, 6, 20 and 21.

[3] = Parallel artificial membrane permeability assay - blood brain barrier (PAMPA-BBB); conditions: for Log Pe: High permeability LogPe > −5.33, No permeability LogPe < −6.14; for Papp at 18 h, 250 μM: pig, PAMPA, pH 7.5
P-gp = biological target: T1, P-gp (Homo sapiens, UniProt P08183); test: MDCK-MDR1 bidirectional permeability / efflux assay; type: in vitro ADME; conditions: MDCK-MRD1, absence of zosuquidar
T1 construct: host or cells: MDCK-MDR1 (Madin Darby canine kidney cells carrying the MDR1 gene)
Experimental: The assay was carried out at Sai Life Sciences. Stock solutions of 6, 20, assay controls loperamide, atenolol, and propanolol (4 and 20 mM), and P-gp inhibitor zosuquidar (10 mM) were prepared in DMSO. Then the stock solutions from each test compound were diluted in HBSS buffer containing 10 mM HEPES to obtain the assay working solutions without the P-gp inhibitor at 2 and 10 μM (0.1 % DMSO v/v). Into working solutions containing zosuquidar (5 μM) were individually diluted 6, 20, and loperamide to obtain working solutions containing the test compounds at 2 or 10 μM and zosuquidar at 5 μM.
The MDCK-MDR1 (Madin Darby canine kidney - Multidrug Resistance gene-1) cells were cultured in DMEM media supplemented with 10 % FBS and antibiotics. For transport studies, cells were seeded into PET trans filter membranes (Millipore #PSRP010R5; 1.0 μm pore size) at a density of 1.2 × 10^5 cells/well and colchicine was added to the flasks and plates according to their volume. After 24 h, the media were replaced by fresh media and then changed every 2 days over 8 days. The media were removed from the wells of the basal and apical compartments of the plates, and a solution of HBSS with or without zosuquidar (5 μM) was added to the apical (400 μL) and basal (800 μL) sides of the plates. The plates were pre-incubated at 37 °C for 30 min in humidified air with 5 % CO2. The TTER (Transepithelial-Transendothelial Electrical Resistance) value for each well was recorded (assay TEER >83 Ω.cm^2). The buffer was removed from both compartments, and for the apical to basal direction transport determination, the apical compartment was loaded with 400 μL of the working solutions of the tested compounds or controls (2 or 10 μM) in the presence or absence of zosuquidar (5 μM), and the basal compartment was loaded with 800 μL of HBSS (0.1 % DMSO v/v). For the basal to apical direction transport determination, the compartments were loaded in their reverse order. The assay was performed in duplicate for the two transport directions [apical to basolateral (A → B) and basolateral to apical (B → A)]. After 120 min, 100 μL samples from both the apical and basal sides of the plate were transferred to new 96-deep well plates, quenched with acetonitrile containing an internal standard, vortexed for 5 min, and then centrifuged at 4000 rpm for 10 min. The same procedure was used to prepare a 96-deep well plate containing non-assayed working solutions (t = 0 concentrations). After centrifugation, 100 μL of the supernatant of each well was transferred to a new 96-well plate, and the samples were analyzed by LC-MS/MS.
For each experiment, the apparent permeability (Papp) for each direction and the efflux ratio (ER) were determined by the equations: Papp(cm/s)=(dQ/dt)/A×Co
where dQ/dt is the rate of permeation of the tested compounds across the (0 and 120 min) after correcting for dilution; A is the area of the filter (0.7 cm^2); Co is the initial concentration of the compounds on the donor compartment.
Where P(B→A) is the apparent permeability of the compounds from the basal to the apical direction and P(A→B) is the apparent permeability from the apical to basal direction. Lucifer Yellow was used as a control of the assay to evaluate monolayer integrity after incubation with the working solutions of the compounds, and the results were validated if the permeability of Lucifer Yellow from the apical to the basal side after 1-h incubation was kept <2 %. The results are presented as an average of two independent experiments.

T1 sequence (P08183 whole entry): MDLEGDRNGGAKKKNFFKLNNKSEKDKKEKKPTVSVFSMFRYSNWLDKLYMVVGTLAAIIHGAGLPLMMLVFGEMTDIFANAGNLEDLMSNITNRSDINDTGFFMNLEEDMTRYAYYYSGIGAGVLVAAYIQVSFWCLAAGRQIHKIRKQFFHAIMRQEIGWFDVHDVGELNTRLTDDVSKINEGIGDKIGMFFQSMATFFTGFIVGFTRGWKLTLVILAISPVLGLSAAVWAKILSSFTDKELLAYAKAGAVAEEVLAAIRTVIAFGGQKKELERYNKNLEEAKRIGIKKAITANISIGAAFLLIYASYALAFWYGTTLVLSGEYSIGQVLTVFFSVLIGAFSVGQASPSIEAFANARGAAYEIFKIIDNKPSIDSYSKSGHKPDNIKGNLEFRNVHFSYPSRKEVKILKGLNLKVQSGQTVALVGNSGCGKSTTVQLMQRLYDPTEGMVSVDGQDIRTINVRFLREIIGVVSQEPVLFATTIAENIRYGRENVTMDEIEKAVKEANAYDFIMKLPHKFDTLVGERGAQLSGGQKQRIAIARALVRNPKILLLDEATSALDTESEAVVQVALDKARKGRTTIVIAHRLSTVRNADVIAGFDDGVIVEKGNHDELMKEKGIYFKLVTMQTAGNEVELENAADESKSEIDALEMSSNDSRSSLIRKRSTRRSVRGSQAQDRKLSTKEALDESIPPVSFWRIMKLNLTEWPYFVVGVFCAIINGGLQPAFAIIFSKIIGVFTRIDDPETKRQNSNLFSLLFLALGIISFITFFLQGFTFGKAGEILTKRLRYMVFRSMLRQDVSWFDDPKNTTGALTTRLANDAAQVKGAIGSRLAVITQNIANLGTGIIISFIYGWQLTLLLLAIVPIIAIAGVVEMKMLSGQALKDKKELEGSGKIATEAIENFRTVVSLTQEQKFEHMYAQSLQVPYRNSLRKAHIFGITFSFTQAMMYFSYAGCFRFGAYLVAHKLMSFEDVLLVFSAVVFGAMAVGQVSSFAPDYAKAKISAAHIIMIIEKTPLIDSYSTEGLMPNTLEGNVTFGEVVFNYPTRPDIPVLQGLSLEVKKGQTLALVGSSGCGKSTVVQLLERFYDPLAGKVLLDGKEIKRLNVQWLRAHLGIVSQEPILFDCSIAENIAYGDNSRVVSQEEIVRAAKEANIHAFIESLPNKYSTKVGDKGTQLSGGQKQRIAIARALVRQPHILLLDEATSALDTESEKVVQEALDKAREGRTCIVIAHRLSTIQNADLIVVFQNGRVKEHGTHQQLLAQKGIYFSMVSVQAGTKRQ

Compound: O=C1CC(=O)CC(c2ccc(F)cc2)C1 [Compound 1]
EC50 [1]: 0.8 µM

Compound: O=C1CC(=O)CC(c2cc(C(F)(F)F)cc(C(F)(F)F)c2)C1 [Compound 2]
EC50 [1]: 0.7 µM | activity in cortical neuron protection assays (cortical neurons): inactive

Compound: O=C1CC(=O)CC(C(O)Cc2cc(C(F)(F)F)cc(C(F)(F)F)c2)C1 (stereo not drawn) [Compound 4, 5-(2-(3,5-Bis(trifluoromethyl)phenyl)-1-hydroxyethyl)cyclohexane-1,3-dione]
EC50 [2]: 7.89 ± 1.88 µM | loss of potency relative to NU-9 [2]: 3 fold | Log Pe ([3]; PAMPA-BBB): −6.61 | Papp at 18 h, 250 μM [3]: 0.25 ± 0.01 ×10⁻⁶ cm/s

Compound: O[C@@H]1CC([C@H](O)Cc2cc(C(F)(F)F)cc(C(F)(F)F)c2)C[C@H](O)C1 (stereo partly drawn) [Compound 5, (1R,3S)-5-((R)-2-(3,5-Bis(trifluoromethyl)phenyl)-1-hydroxyethyl)cyclohexane-1,3-diol]
EC50 against MG132-induced mutant SOD1 intracellular aggregation [2]: Inactive

Compound: COC1=CC(=O)C(Cc2cc(C(F)(F)F)cc(C(F)(F)F)c2)C1 (stereo not drawn) [Compound 7, 5-(3,5-Bis(trifluoromethyl)benzyl)-3-methoxycyclopent-2-en-1-one]
EC50 against MG132-induced mutant SOD1 intracellular aggregation [2]: Inactive

Compound: O=C1CC(=O)CN(CCc2cc(C(F)(F)F)cc(C(F)(F)F)c2)C1 [Compound 10, 1-(3,5-Bis(trifluoromethyl)phenethyl)piperidine-3,5-dione]
EC50 [2]: > 10 µM

Compound: O=C1CC(=O)CC(C2(Oc3cc(C(F)(F)F)cc(C(F)(F)F)c3)CCC2)C1 [Compound 21, 5-(1-(3,5-bis(trifluoromethyl)phenoxy)cyclobutyl)cyclohexane-1,3-dione]
EC50 [2]: 5.37 ± 1.03 µM | loss of potency relative to NU-9 [2]: > 2 fold | Log Pe ([3]; PAMPA-BBB): −4.77 | Papp at 18 h, 250 μM [3]: 16.8 ± 0.54 ×10⁻⁶ cm/s

Compound: CC1=NN(c2ccccc2)C(=O)C1 [Edaravone, edaravone, reference compound]
Pe ([3]; PAMPA-BBB, 250 μM, PBS pH 7.5, 25 °C, 18 h): 17.43 ± 3.20 10^−6 cm/s | Log Pe ([3]; PAMPA-BBB): −4.76

Compound: CN(C)C(=O)C(CCN1CCC(O)(c2ccc(Cl)cc2)CC1)(c1ccccc1)c1ccccc1 [Lop., loperamide, reference compound]
Papp (B → A) (P-gp): 25.70 ± 0.35 10^−6 cm/s | efflux ratio at 120 min (P-gp; dog, MDCK-MDR1, read-out: Efflux Ratio): 128 | Papp A→B at 120 min (P-gp; dog, MDCK-MDR1, read-out: Papp (A → B)): 0.2 ± 0.06 ×10⁻⁶ cm/s

More lines, main results first:

EC50 [2]: > 10 µM
Compound: O=C1CC(=O)C(Cc2cc(C(F)(F)F)cc(C(F)(F)F)c2)C1 (stereo not drawn) [Compound 8, 4-(3,5-Bis(trifluoromethyl)benzyl)cyclopentane-1,3-dione]

EC50 against MG132-induced mutant SOD1 intracellular aggregation [2]: Inactive
Compound: O=C1CC2CC(C1)C(Cc1cc(C(F)(F)F)cc(C(F)(F)F)c1)O2 (stereo not drawn) [Compound 11]

EC50 against MG132-induced mutant SOD1 intracellular aggregation [2]: Inactive
Compound: O=C1CC2CC(C1)C(Cc1cc(C(F)(F)F)cc(C(F)(F)F)c1)O2 (stereo not drawn) [Compound 12]

EC50 against MG132-induced mutant SOD1 intracellular aggregation [2]: Inactive
Compound: OC1CC2CC(C1)C(Cc1cc(C(F)(F)F)cc(C(F)(F)F)c1)O2 (stereo not drawn) [Compound 13]

EC50 against MG132-induced mutant SOD1 intracellular aggregation [2]: Inactive
Compound: OC1CC2CC(C1)C(Cc1cc(C(F)(F)F)cc(C(F)(F)F)c1)O2 (stereo not drawn) [Compound 14]

EC50 against MG132-induced mutant SOD1 intracellular aggregation [2]: Inactive
Compound: OC1CC2CC(C1)C(Cc1cc(C(F)(F)F)cc(C(F)(F)F)c1)O2 (stereo not drawn) [Compound 15]

EC50 [2]: > 10 µM
Compound: O=C1CC2CC(C1)C(c1cc(C(F)(F)F)cc(C(F)(F)F)c1)O2 (stereo not drawn) [Compound 16]
decrease in MG132-induced SOD-1^G85R aggregate formation ([2]; at 10 μM, 72 h): mild anti-aggregation activity

EC50 against MG132-induced mutant SOD1 intracellular aggregation [2]: Inactive
Compound: OC1CC2CC(C1)C(c1cc(C(F)(F)F)cc(C(F)(F)F)c1)O2 (stereo not drawn) [Compound 17]

EC50 against MG132-induced mutant SOD1 intracellular aggregation [2]: Inactive
Compound: Cl.N[C@H]1C[C@H]2C[C@@H](C1)[C@H](Cc1cc(C(F)(F)F)cc(C(F)(F)F)c1)O2 [Compound 18, (1R,3R,5R,7S)-7-(3,5-Bis(trifluoromethyl)benzyl)-6-oxabicyclo[3.2.1]octan-3-aminium chloride]

EC50 against MG132-induced mutant SOD1 intracellular aggregation [2]: Inactive
Compound: Cl.N[C@@H]1C[C@H]2C[C@@H](C1)[C@H](Cc1cc(C(F)(F)F)cc(C(F)(F)F)c1)O2 [Compound 19, (1R,3S,5R,7S)-7-(3,5-Bis(trifluoromethyl)benzyl)-6-oxabicyclo[3.2.1]octan-3-aminium chloride]
